Experimental data taken from patent US5491167A, “Hexahydronaphthalene ester derivatives, their preparation and their therapeutic uses” (Sankyo Company, Limited, priority 1993, dated 1996).
pIC50: −log10 of the molar value. Structures can show the parent of a compound that is named as a salt.

Target: T1, HMG-CoA reductase (Rattus norvegicus, UniProt P51639)
T1 construct: an enzyme solution (rat liver microsomal fraction); from tissue; host or cells: rat liver microsomal fraction
T1 sequence (P51639 1-887): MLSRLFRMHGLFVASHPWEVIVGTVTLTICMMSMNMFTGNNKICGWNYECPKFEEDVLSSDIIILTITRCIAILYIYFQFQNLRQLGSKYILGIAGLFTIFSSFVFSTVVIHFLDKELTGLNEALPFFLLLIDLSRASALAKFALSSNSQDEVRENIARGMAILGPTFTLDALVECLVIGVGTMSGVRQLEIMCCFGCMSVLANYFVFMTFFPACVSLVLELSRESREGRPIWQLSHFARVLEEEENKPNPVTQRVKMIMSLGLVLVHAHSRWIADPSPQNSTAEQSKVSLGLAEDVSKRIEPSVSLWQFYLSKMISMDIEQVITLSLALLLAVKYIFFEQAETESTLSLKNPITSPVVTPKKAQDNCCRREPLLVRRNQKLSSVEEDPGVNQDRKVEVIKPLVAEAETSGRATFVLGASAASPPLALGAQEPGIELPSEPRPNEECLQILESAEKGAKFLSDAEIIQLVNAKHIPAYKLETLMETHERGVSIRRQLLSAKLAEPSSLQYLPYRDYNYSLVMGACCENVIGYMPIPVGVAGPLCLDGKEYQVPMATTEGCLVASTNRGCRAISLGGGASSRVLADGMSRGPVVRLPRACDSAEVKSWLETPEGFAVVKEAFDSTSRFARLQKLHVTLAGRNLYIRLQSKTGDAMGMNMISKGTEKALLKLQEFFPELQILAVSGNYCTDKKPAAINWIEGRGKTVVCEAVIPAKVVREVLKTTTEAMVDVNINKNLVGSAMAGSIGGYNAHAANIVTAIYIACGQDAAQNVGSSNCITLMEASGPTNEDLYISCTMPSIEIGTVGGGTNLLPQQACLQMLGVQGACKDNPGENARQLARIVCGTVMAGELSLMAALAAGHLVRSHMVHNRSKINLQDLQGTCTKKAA
Test: Determination of HMG-CoA Reductase Inhibitory Activity
Type: biochemical
Details: rat liver microsomal fraction, 0.2 mM [14C]HMG-CoA, pH7.4, 15 minutes at 37° C
Method: The ability of the preferred test compounds to inhibit the activity of HMG-CoA reductase was determined by the method of Koga et al. [Eur. J. Biochem. 209, 315-319 (1992)], the improved procedure of Kuroda et al. [Biochem. Biophys, Acta, 485, 70-81 (1977)] which a modification of the method of Shapiro et al. [Anal. Biochem. 31, 383-390, (1969)].
A solution of 5 μl of the preferred test compound dissolved in distilled water was added to 45 μl of a reaction mixture containing 100 mM of a potassium phosphate buffer (pH7.4), 0.2 mM of [^14 C]HMG-CoA, 10 mM of ethylenediaminetetraacetic acid disodium salt, 10 mM of dithiothreitol, 10 mM of NADPH (=reduced nicotinamide adenine dinucleotide phosphate) and an enzyme solution (rat liver microsomal fraction). The concentrations are expressed in terms of the final 50 μl of assay mixture. The resulting mixture was incubated for 15 minutes at 37° C. The reaction was then terminated by adding 10 μl of 2N aqueous hydrochloric acid, to lactonize the [^14 C]mevalonate produced. After 15 minutes incubation, 1 ml of a 1:1 by volume aqueous suspension of Biorex-5 was added and the tubes were vigorously mixed using a Vortex mixer. […] The supernatant (400 μl) was mixed with 4.5 ml of Optiflow™ in scintillation vials and the activity of the [^14 C]mevalonolactone was determined by a liquid scintillation counter.

pIC50 | SMILES
7.47 | CCC(Oc1c(C)cccc1C)C(=O)O[C@H]1C[C@H](O)C=C2C=C[C@H](C)[C@H](CC[C@@H](O)C[C@@H](O)CC(=O)O)[C@H]21 (stereo partly drawn) [Example 6, Sodium salt of (3R,5R)-3,5-dihydroxy-7-{(1S,2S,6S,8S,8aR)-1,2,6,7,8,8a-hexahydro-6-hydroxy-8-[(2RS)-2-(2,6-dimethylphenoxy)butyryloxy]-2-methyl-1-naphthyl}heptanoicacid]
7.51 | CCC(Oc1ccc(C)cc1)C(=O)O[C@H]1C[C@H](O)C=C2C=C[C@H](C)[C@H](CC[C@@H](O)C[C@@H](O)CC(=O)O)[C@H]21 (stereo partly drawn) [Example 3, Sodium Salt of (3R,5R)-3,5-dihydroxy-7-{(1S,2S,6S,8S,8aR)-1,2,6,7,8,8a-hexahydro-6-hydroxy-8-[(2RS)-2-(4-methylphenoxy)butyryloxy]-2-methyl-1-naphthyl}heptanoic acid]
